Results reported in paper PMC9278656 (Journal of medicinal chemistry, 2021).
Counter-ions that a name gives are not always drawn. Like-named read-outs stand apart in the source and are kept apart here.

What was measured:
Ionophore activity = conditions: larger number indicates weaker ionophore activity
p53^R175H = experiment: Immunofluorescence with conformation-specific antibodies PAB1620/PAB240; format: cell-based
H1299 cells (p53 null) = experiment: Oxidative stress detection, CellROX Green, flow cytometry; format: cell-based; conditions: 0.75 μM compound, 24 h, relative to ZMC1
Human hERG = Human hERG (Homo sapiens, UniProt Q12809); experiment: CEREP safety screen, hERG [3H]-dofetilide; format: binding; conditions: 10 μM
[1] = target: Human Norepinephrine Transporter (Homo sapiens, UniProt P23975); experiment: CEREP safety screen, norepinephrine transporter; format: binding; conditions: 10 μM
Caco-2 permeability = format: in vitro ADME; conditions: human
TOV-112D (p53^R175H) = experiment: Cell growth inhibition assay; format: cell-based; conditions: Homo sapiens, TOV112D, 72 h, read-out: EC50 TOV-112D
[2] = test system: Rat Sodium Channel site 2; experiment: CEREP safety screen, sodium channel site 2; format: binding; conditions: 10 μM
[3] = test system: p53 wild type and p53 null cell lines; experiment: Cell kill in p53 wild type and p53 null cell lines; format: cell-based; conditions: allele selectivity, Suppl. Figure S1
[4] = cited from earlier work
[5] = test system: MDA-MB-468 (p53^R273H) tumors; experiment: Xenograft tumor assay, MDA-MB-468; format: in vivo, nude mice NCr nu/nu; conditions: non Zn-deficient mutation, Suppl. Figure S2
[6] = NCr nu/nu nude, mouse, in vivo, ip
TOV-112D cells = experiment: Combination of C85 with γ-irradiation or etoposide, cell growth inhibition; format: cell-based; conditions: Homo sapiens, TOV112D, read-out: EC50, C85 only
[7] = Hydrolytic stability in SGF and PBS; format: physicochemical; conditions: 6 h

Human hERG, sequence (Q12809 whole entry): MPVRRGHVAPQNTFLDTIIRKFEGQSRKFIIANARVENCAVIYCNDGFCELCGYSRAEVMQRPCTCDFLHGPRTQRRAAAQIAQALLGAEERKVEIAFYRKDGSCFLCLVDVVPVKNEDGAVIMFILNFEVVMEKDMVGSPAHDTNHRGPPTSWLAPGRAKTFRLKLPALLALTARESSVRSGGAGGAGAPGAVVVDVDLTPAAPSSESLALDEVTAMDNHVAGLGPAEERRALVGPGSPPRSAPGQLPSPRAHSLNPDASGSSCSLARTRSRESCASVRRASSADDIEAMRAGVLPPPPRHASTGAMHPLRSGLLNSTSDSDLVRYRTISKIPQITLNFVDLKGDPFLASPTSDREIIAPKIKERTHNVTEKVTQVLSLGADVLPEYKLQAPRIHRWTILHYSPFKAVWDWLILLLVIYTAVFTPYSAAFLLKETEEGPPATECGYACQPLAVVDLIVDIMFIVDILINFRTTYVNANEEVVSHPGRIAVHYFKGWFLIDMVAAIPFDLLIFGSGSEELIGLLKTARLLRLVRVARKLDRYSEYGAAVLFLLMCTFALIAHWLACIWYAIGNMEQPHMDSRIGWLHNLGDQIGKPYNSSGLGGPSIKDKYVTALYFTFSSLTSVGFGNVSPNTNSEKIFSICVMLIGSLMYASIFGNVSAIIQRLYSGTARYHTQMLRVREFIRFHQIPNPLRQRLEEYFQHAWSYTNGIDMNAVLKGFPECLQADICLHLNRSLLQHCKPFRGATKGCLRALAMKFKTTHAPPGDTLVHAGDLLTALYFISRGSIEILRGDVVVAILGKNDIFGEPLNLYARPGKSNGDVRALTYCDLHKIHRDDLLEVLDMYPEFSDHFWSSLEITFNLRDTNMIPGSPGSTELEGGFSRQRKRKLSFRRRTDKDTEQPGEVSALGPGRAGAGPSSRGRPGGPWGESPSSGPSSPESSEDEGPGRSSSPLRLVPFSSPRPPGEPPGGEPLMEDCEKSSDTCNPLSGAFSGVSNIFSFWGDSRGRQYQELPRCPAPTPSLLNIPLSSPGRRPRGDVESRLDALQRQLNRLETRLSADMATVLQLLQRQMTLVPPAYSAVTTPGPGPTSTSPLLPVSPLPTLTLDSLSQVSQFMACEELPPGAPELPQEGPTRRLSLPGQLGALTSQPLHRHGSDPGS
Human Norepinephrine Transporter, sequence (P23975 whole entry): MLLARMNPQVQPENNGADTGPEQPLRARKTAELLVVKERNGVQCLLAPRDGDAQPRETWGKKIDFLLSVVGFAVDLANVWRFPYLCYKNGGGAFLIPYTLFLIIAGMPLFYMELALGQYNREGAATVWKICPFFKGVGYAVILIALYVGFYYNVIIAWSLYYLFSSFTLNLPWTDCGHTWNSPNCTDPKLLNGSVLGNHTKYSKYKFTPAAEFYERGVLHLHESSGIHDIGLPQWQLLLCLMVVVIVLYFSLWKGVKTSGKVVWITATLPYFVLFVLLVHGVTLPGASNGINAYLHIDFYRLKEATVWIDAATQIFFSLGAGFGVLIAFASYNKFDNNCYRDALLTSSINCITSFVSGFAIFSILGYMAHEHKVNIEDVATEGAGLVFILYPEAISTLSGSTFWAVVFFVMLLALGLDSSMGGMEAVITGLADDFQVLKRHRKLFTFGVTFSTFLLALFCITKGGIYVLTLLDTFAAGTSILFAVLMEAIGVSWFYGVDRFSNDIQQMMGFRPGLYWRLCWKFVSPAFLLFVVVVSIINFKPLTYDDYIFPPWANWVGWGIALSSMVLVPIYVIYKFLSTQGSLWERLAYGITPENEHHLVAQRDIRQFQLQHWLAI

SMILES	Ionophore Ji drug/Ji DMSO (Ionophore activity)	Refolding p53^R175H → wild type (p53^R175H)	also measured
CC(C)(C)/C(=N\NC(=S)N1CCC1)c1ccccn1 [A13, (E)-N′-(2,2-Dimethyl-1-(pyridin-2-yl)propylidene)azetidine-1-carbothiohydrazide]	14.4 -log[mol/m^2s]		
C/C(=N\Nc1nccn1C)c1ccccn1 [C78, 2-(1-(2-(1-Methyl-1H-imidazol-2-yl)hydrazono)ethyl)pyridine HCl]	11.8 -log[mol/m^2s]	YES	
C/C(=N\Nc1nc2ccccc2n1CCN1CCOCC1)c1ccccn1 [C42, (E)-4-(2-(2-(2-(1-(Pyridin-2-yl)ethylidene)hydrazineyl)-1H-benzo[d]imidazol-1-yl)ethyl)morpholine HCl]	11.6 -log[mol/m^2s]	YES	ROS (ROS/ZMC1 ROS) (H1299 cells (p53 null)): 1.0; hERG inhibition, in words (Human hERG): strong hERG inhibition
C/C(=N\Nc1nc2ccccc2s1)c1ncccn1 [C77, (E)-2-(2-(1-(Pyrimidin-2-yl)ethylidene)hydrazineyl)benzo[d]thiazole AcOH]	11.8 -log[mol/m^2s]		Activity against the norepinephrine transporter, in words [1]: showed activity
C/C(=N\Nc1ccc2ccccc2n1)c1ccccn1 [C22, (E)-2-(2-(1-(Pyridin-2-yl)ethylidene)hydrazineyl)quinoline]	11.6 -log[mol/m^2s]	YES	
C/C(=N\Nc1nc2ccccc2n1CCN(C)C)c1ccccn1 [C27, (E)-N,N-Dimethyl-2-(2-(2-(1-(pyridin-2-yl)ethylidene)hydrazineyl)-1H-benzo[d]imidazol-1-yl)ethan-1-amine HCl]	11.6 -log[mol/m^2s]	YES	
C/C(=N\NC(=S)N(C)C)c1ccccn1 [A1, (E)-N,N-Dimethyl-2-(1-(pyridin-2-yl)ethylidene)hydrazine-1-carbothioamide]	12.8 -log[mol/m^2s]	YES	Papp at 90 min, 5 μM (Caco-2 permeability): 73 ± 1 nm/s
C/C(=N\NC(=S)N1CCC1)c1ncccc1C [A12, (E)-N′-(1-(3-Methylpyridin-2-yl)ethylidene)azetidine-1-carbothiohydrazide]	11.6 -log[mol/m^2s]		EC50 (TOV-112D (p53^R175H)): 0.011 µM
C/C(=N\Nc1nc2ccccc2s1)c1cc(OCCN2CCN(C)CC2)ccn1 [C64, (E)-2-(2-(1-(4-(2-(4-Methylpiperazin-1-yl)ethoxy)pyridin-2-yl)ethylidene)hydrazineyl)benzo[d]thiazole HCl]	11.6 -log[mol/m^2s]		
C/C(=N\Nc1nc2ccccc2n1CCN1CCCC1)c1ccccn1 [C69, (E)-2-(2-(1-(Pyridin-2-yl)ethylidene)hydrazineyl)-1-(2-(pyrrolidin-1-yl)ethyl)-1H-benzo[d]imidazole HCl]	11.6 -log[mol/m^2s]	YES	EC50 (TOV-112D (p53^R175H)): 0.093 µM; ROS (ROS/ZMC1 ROS) (H1299 cells (p53 null)): 1.2; hERG inhibition, in words (Human hERG): strong hERG inhibition; Activity against the sodium channel, in words [2]: showed activity; Activity against the norepinephrine transporter, in words [1]: showed activity
C/C(=N\Nc1nc2ccccc2n1C)c1ncccn1 [C89, (E)-1-Methyl-2-(2-(1-(pyrimidin-2-yl)ethylidene)hydrazineyl)-1H-benzo[d]imidazole HCl]	12.0 -log[mol/m^2s]		hERG inhibition, in words (Human hERG): strong hERG inhibition
C/C(=N\NC(=S)NC1CCN(c2ccccn2)CC1)c1ccccn1 [A4, (E)-2-(1-(Pyridin-2-yl)ethylidene)-N-(1-(pyridin-2-yl)piperidin-4-yl)hydrazine-1-carbothioamide]	14.5 -log[mol/m^2s]		
C/C(=N\Nc1nc2ccccc2s1)c1cc(OCCO)ccn1 [C61, (E)-2-((2-(1-(2-(Benzo[d]thiazol-2-yl)hydrazineylidene)ethyl)pyridin-4-yl)oxy)ethan-1-ol]	11.6 -log[mol/m^2s]		
COCCOc1ccc2nc(N/N=C(\C)c3ccccn3)sc2c1 [C23, (E)-6-(2-Methoxyethoxy)-2-(2-(1-(pyridin-2-yl)ethylidene)hydrazineyl)benzo[d]thiazole AcOH]	11.6 -log[mol/m^2s]	YES	
C/C(=N\Nc1nc2ccccc2o1)c1ccccn1 [C2, (E)-2-(2-(1-(Pyridin-2-yl)ethylidene)hydrazinyl)benzo[d]oxazole]	11.8 -log[mol/m^2s]	induced a wild-type conformational change and YES	Papp at 90 min, 5 μM (Caco-2 permeability): 106 ± 5 nm/s; Cell kill in p53 wild type and p53 null cell lines [3]: almost no cell kill; Aqueous solubility [4]: low aqueous solubility
C/C(=N\NC(=S)N1CCC1)c1cnccn1 [A10, (E)-N′-(1-(Pyrazin-2-yl)ethylidene)azetidine-1-carbothiohydrazide]	11.8 -log[mol/m^2s]	YES	EC50 (TOV-112D (p53^R175H)): 0.022 µM
COC/C(=N\Nc1nc2ccccc2s1)c1ccccn1 [C65, (Z)-2-(2-(2-Methoxy-1-(pyridin-2-yl)ethylidene)hydrazineyl)benzo[d]thiazole]	11.6 -log[mol/m^2s]	YES	
C/C(=N\Nc1nc2ccccc2s1)c1cc(N(C)C)ccn1 [C21, (E)-2-(1-(2-(Benzo[d]thiazol-2-yl)hydrazineylidene)ethyl)-N,N-dimethylpyridin-4-amine]	11.6 -log[mol/m^2s]	YES	
C/C(=N\Nc1nc2ccccc2s1)c1cc(OCCN(C)C)ccn1 [C28, (E)-2-((2-(1-(2-(Benzo[d]thiazol-2-yl)hydrazineylidene)ethyl)pyridin-4-yl)oxy)-N,N-dimethylethan-1-amine HCl]	11.6 -log[mol/m^2s]	YES	hERG inhibition, in words (Human hERG): strong hERG inhibition; Activity against the norepinephrine transporter, in words [1]: showed activity
CS/C(=N\N=C(/C)c1ccccn1)N1CCC1 [A5, Methyl (Z)-N-((E)-1-(Pyridin-2-yl)ethylidene)azetidine-1-carbohydrazonothioate]	12.4 -log[mol/m^2s]		
C/C(=N\Nc1nc2ccccc2s1)c1ccccn1 [C1, (E)-2-(2-(1-(Pyridin-2-yl)ethylidene)hydrazinyl)benzo[d]thiazole]	11.6 -log[mol/m^2s]	induced a wild-type conformational change	Refolding p53^R175H → wild type (p53^R175H; listed as Cl): YES; Papp at 90 min, 5 μM (Caco-2 permeability): 44 ± 1 nm/s; Activity against the sodium channel, in words [2]: showed activity; Activity against the norepinephrine transporter, in words [1]: showed activity; Cell kill in p53 wild type and p53 null cell lines [3]: almost no cell kill; Tumor growth inhibition of p53^R273H tumors [5]: did not inhibit the tumor growth; Well tolerated dose without significant weight loss [6]: up to 30 mg/kg; Aqueous solubility [4]: low aqueous solubility
C/C(=N\NC(=O)N1CCC1)c1ccccn1 [A6, (E)-N′-(1-(Pyridin-2-yl)ethylidene)azetidine-1-carbohydrazide]	12.9 -log[mol/m^2s]		
C/C(=N\NC(=S)N1CCC1)c1ccccc1 [A9, (E)-N′-(1-Phenylethylidene)azetidine-1-carbothiohydrazide]	11.6 -log[mol/m^2s]		
C/C(=N\NC(=S)N1CCC1)c1cccc(C)n1 [A11, (E)-N′-(1-(6-Methylpyridin-2-yl)ethylidene)azetidine-1-carbothiohydrazide]	12.6 -log[mol/m^2s]	YES	
C/C(=N\Nc1nc2ccccc2o1)c1cc(OCCN(C)C)ccn1 [C35, (E)-2-((2-(1-(2-(Benzo[d]oxazol-2-yl)hydrazineylidene)ethyl)pyridin-4-yl)oxy)-N,N-dimethylethan-1-amine HCl]		YES	
C/C(=N\NC(=S)N1CCC1)c1cc(N(C)C)ccn1 [A14, (E)-N′-(1-(4-(Dimethylamino)pyridin-2-yl)ethylidene)azetidine-1-carbothiohydrazide]	12.5 -log[mol/m^2s]		
C/C(=N\Nc1nc2ccccc2n1CCN1CCC(F)(F)C1)c1ccccn1 [C85, (E)-1-(2-(3,3-Difluoropyrrolidin-1-yl)ethyl)-2-(2-(1-(pyridin-2-yl)ethylidene)hydrazineyl)-1H-benzo[d]imidazole HCl]	12.2 -log[mol/m^2s]	could induce a wild-type conformational change and YES	ROS (ROS/ZMC1 ROS) (H1299 cells (p53 null)): 0.8; hERG inhibition, in words (Human hERG): potent hERG inhibition; EC50 (TOV-112D cells; light or radiation study, 72 h): 0.71 µM; EC50 (TOV-112D cells): 0.57 µM; Compound remaining ([7]; SGF pH 1–2, 37 °C): > 82%; Compound remaining ([7]; SGF pH 1–2, room temperature): > 92%
C/C(=N\Nc1nc2ccccc2n1C)c1ccccn1 [C9, (E)-1-Methyl-2-(2-(1-(pyridin-2-yl)ethylidene)hydrazinyl)-1H-benzo[d]imidazole]	11.6 -log[mol/m^2s]	YES	hERG inhibition, in words (Human hERG): strong hERG inhibition; Aqueous solubility [4]: low aqueous solubility
